Here are results for 27 molecules from US20240199587A1, “HETEROCYCLIC COMPOUNDS” (Hoffmann-La Roche Inc., priority 2021, published 2024).

In the assay the target is T1, MAGL (Homo sapiens, UniProt Q99685).
T1 sequence (Q99685 1-303): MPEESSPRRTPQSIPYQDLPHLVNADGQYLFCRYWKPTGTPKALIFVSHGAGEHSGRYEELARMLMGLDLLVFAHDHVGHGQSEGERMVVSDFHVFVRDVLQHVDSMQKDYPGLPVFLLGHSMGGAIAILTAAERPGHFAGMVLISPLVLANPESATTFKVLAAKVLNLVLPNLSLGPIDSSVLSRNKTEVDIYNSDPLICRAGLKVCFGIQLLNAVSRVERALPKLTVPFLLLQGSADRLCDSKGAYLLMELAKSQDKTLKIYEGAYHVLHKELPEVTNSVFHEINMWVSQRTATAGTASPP
Briefly: 2-AG assay (MAGL inhibitory activity, hydrolysis of 2-arachidonoylglycerol to arachidonic acid followed by mass spectrometry). Conditions: 8 μM 2-arachidonoylglycerol, 15 min pre-incubation, 30 min incubation at RT, RapidFire MS readout. Type of assay: biochemical. The method in brief: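 Human MAGL ([…] final) pre-incubated 15 min at RT with compound in 50 mM TRIS, 1 mM EDTA, 0.01% Tween-20, 2.5% DMSO; 8 μM 2-AG then added for 30 min at RT. Acetonitrile quench with d8-arachidonic acid; arachidonic acid measured by RapidFire SPE–MS/MS, activity from arachidonic acid/d8 ratio.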
The term IC50 denotes the concentration that gives 50% inhibition. Molecule `O=C(N1CC(C#Cc2ccccc2C(F)F)C1)N1CC2(CC(n3cnc(C4CC4)c3)C2)C1` [Example 139, [6-(4-cyclopropylimidazol-1-yl)-2-azaspiro[3.3]heptan-2-yl]−[3-[2-[2-(difluoromethyl)phenyl]ethynyl]azetidin-1-yl]methanone] returned an IC50 of 11.5 nM. As for `O=C(N1CC(c2noc(C3(C(F)(F)F)CC3)n2)C1)N1CC2(CC(n3cnc(C4CC4)n3)C2)C1` [Example 140, [6-(3-cyclopropyl-1,2,4-triazol-1-yl)-2-azaspiro[3.3]heptan-2-yl]-[3-[5-[1-(trifluoromethyl)cyclo-propyl]-1,2,4-oxadiazol-3-yl]azetidin-1-yl]methanone], the figure is 61.7 nM; as for `O=C(N1CC(c2noc(C3(C(F)(F)F)CC3)n2)C1)N1CC2(CC(n3cnc(C4CC4)c3)C2)C1` [Example 141], 332 nM. `Cc1cc(C(=O)N2CC3(CC(n4cnc(C5CC5)c4)C3)C2)cnc1OCC1(C)CC1` [Example 142, [6-(4-cyclopropylimidazol-1-yl)-2-azaspiro[3.3]heptan-2-yl]−[5-methyl-6-[(1-methylcyclopropyl)methoxy]-3-pyridyl]methanone]: the IC50 came out at 31.3 nM. `Cc1cc(C(=O)N2CC3(CC(n4cnc(C5CC5)n4)C3)C2)cnc1OCC1(C)CC1` [Example 143, [6-(3-cyclopropyl-1,2,4-triazol-1-yl)-2-azaspiro[3.3]heptan-2-yl]-[5-methyl-6-[(1-methylcyclopropyl)methoxy]-3-pyridyl]methanone] had a 50% inhibitory concentration (IC50) of 53.2 nM.

Regarding `O=C(N1CC(n2cc(OCC(F)(F)F)cn2)C1)N1CC2(CC(n3cnc(C4CC4)c3)C2)C1` [Example 144, [6-(4-cyclopropylimidazol-1-yl)-2-azaspiro[3.3]heptan-2-yl]-[3-[4-(2,2,2-trifluoroethoxy)pyrazol-1-yl]azetidin-1-yl]methanone], the IC50 was 602 nM. The value for `O=C(N1CC(c2nnc(C3(C(F)(F)F)CC3)o2)C1)N1CC2(CC(n3cnc(C4CC4)n3)C2)C1` [Example 145, [6-(3-cyclopropyl-1,2,4-triazol-1-yl)-2-azaspiro[3.3]heptan-2-yl]-[3-[5-[1-(trifluoromethyl)cyclo-propyl]-1,3,4-oxadiazol-2-yl]azetidin-1-yl]methanone] was 541 nM; that for `Cc1cnn(C2CC3(C2)CN(C(=O)c2ccc(-c4noc(C(C)(C)C)n4)cc2)C3)c1` [Example 146, [4-(5-tert-butyl-1,2,4-oxadiazol-3-yl)phenyl]−[6-(4-methylpyrazol-1-yl)-2-azaspiro[3.3]heptan-2-yl]methanone] was 400 nM.

On to `Cc1cnn(C2CC3(C2)CN(C(=O)c2cnc(OCC4(C(F)(F)F)CC4)c(C)c2)C3)c1` [Example 147, [6-(4-methylpyrazol-1-yl)-2-azaspiro[3.3]heptan-2-yl]-[5-methyl-6-[[1-(trifluoromethyl)cyclopropyl]methoxy]-3-pyridyl]methanone], for which the IC50 amounted to 340 nM. In turn, `Cc1ccn(C2CC3(C2)CN(C(=O)c2ccc(-c4noc(C(C)(C)C)n4)cc2)C3)n1` [Example 148, [4-(5-tert-butyl-1,2,4-oxadiazol-3-yl)phenyl]-[6-(3-methylpyrazol-1-yl)-2-azaspiro[3.3]heptan-2-yl]methanone] showed a 50% inhibitory concentration (IC50) of 1410 nM. Compared with the last molecule, the IC50 is about 4.1-fold higher.

As to `O=C(N1CC2(CC(n3cnc(C4CC4)n3)C2)C1)N1CCC(OCC2(C(F)(F)F)CC2)C2(CC2)C1` (stereo not drawn) [Example 149, [6-(3-cyclopropyl-1,2,4-triazol-1-yl)-2-azaspiro13.31heptan-2-yl]−[8-[[1-(trifluoromethyl)cyclopropyl]methoxy]-5-azaspiro[2.5]octan-5-yl]methanone], half-maximal inhibition (IC50) was put at 441 nM. Consider `O=C(N1CC2(CC(n3cnc(C4CC4)n3)C2)C1)N1CCC(OCC2(C(F)(F)F)CC2)C(F)(F)C1` (stereo not drawn) [Example 150, [6-(3-cyclopropyl-1,2,4-triazol-1-yl)-2-azaspiro[3.3]heptan-2-yl]-[3,3-difluoro-4-[[1-(trifluoromethyl)cyclopropyl]methoxy]-1-piperidyl]methanone], for which half-maximal inhibition (IC50) was put at 162 nM.

In turn, `Cc1cc(C(=O)N2CC3(CC(n4ccc(C5CC5)n4)C3)C2)cnc1OCC1(C(F)(F)F)CC1` [Example 151, [6-(3-cyclopropylpyrazol-1-yl)-2-azaspiro[3.3]heptan-2-yl]-[5-methyl-6-[[1-(trifluoromethyl)cyclopropyl]methoxy]-3-pyridyl]methanone] registered an IC50 of 67.1 nM. Consider `Cc1cc(C(=O)N2CC3(CC(n4ccc(C5CC5)n4)C3)C2)cnc1OC(C)(C)C(F)(F)F` [Example 152, [6-(3-cyclopropylpyrazol-1-yl)-2-azaspiro[3.3]heptan-2-yl]-[5-methyl-6-(2,2,2-trifluoro-1,1-dimethyl-ethoxy)-3-pyridyl]methanone], for which the IC50 amounted to 312 nM. `O=C(c1cnc(OCC2(C(F)(F)F)CC2)c(C(F)(F)F)c1)N1CC2(CC(n3cnc(C4CC4)n3)C2)C1` [Example 153, [6-(3-cyclopropyl-1,2,4-triazol-1-yl)-2-azaspiro[3.3]heptan-2-yl]−[5-(trifluoromethyl)-6-[[1-(trifluoromethyl)cyclopropyl]methoxy]-3-pyridyl]methanone] displayed an IC50 of 14.9 nM. For the molecule `O=C(c1cnc(OCC2(C(F)(F)F)CC2)c(C2COC2)c1)N1CC2(CC(n3cnc(C4CC4)n3)C2)C1` [Example 154, [6-(3-cyclopropyl-1,2,4-triazol-1-yl)-2-azaspiro[3.3]heptan-2-yl]−[5-(oxetan-3-yl)-6-[[1-(trifluoromethyl)cyclopropyl]methoxy]-3-pyridyl]methanone], the IC50 worked out at 10 nM. As for `O=C(N1CC2(CC(n3cnc(C4CC4)n3)C2)C1)C12CCC(COCC3(C(F)(F)F)CC3)(CC1)CC2` [Example 155, [6-(3-cyclopropyl-1,2,4-triazol-1-yl)-2-azaspiro[3.3]heptan-2-yl]−[4-[[1-(trifluoromethyl)cyclopropyl]methoxymethyl]-1-bicyclo[2.2.2]octanyl]methanone], the figure is 20.8 nM; as for `CCc1ncn(C2CC3(C2)CN(C(=O)c2ccc(-c4noc(C(C)(C)C)n4)cc2)C3)n1` [Example 156, [4-(5-tert-butyl-1,2,4-oxadiazol-3-yl)phenyl]−[6-(3-ethyl-1,2,4-triazol-1-yl)-2-azaspiro[3.3]heptan-2-yl]methanone], 33.9 nM.

In turn, `CCc1cn(C2CC3(C2)CN(C(=O)c2ccc(-c4noc(C(C)(C)C)n4)cc2)C3)cn1` [Example 157, [4-(5-tert-butyl-1,2,4-oxadiazol-3-yl)phenyl]-[6-(4-ethylimidazol-1-yl)-2-azaspiro[3.3]heptan-2-yl]methanone] gave an IC50 of 43.7 nM. Molecule `CC(C)(C)c1nc(-c2ccc(C(=O)N3CC4(CC(n5cnc(C(F)(F)F)c5)C4)C3)cc2)no1` [Example 158, [4-(5-tert-butyl-1,2,4-oxadiazol-3-yl)phenyl]-[6-[4-(trifluoromethyl)imidazol-1-yl]-2-azaspiro[3.3]heptan-2-yl]methanone] came in with an IC50 of 69.1 nM.

As for `CC(C)(C)c1nc(-c2ccc(C(=O)N3CC4(CC(n5cnc(Cl)c5)C4)C3)cc2)no1` [Example 159, [4-(5-tert-butyl-1,2,4-oxadiazol-3-yl)phenyl]-[6-(4-chloroimidazol-1-yl)-2-azaspiro[3.3]heptan-2-yl]methanone], the IC50 was 315 nM. Consider `CC(C)(C)c1nc(-c2ccc(C(=O)N3CC4(CC(n5cnc(C#N)c5)C4)C3)cc2)no1` [Example 160, 1-[2-[4-(5-tert-butyl-1,2,4-oxadiazol-3-yl)benzoyl]-2-azaspiro[3.3]heptan-6-yl]imidazole-4-carbonitrile], for which half-maximal inhibition (IC50) was put at 1010 nM. The value for `CC(C)(C)c1nc(C23CC(C(=O)N4CC5(CC(n6cnc(C7CC7)c6)C5)C4)(C2)C3)no1` [Example 162, [3-(5-tert-butyl-1,2,4-oxadiazol-3-yl)-1-bicyclo[1.1.1]pentanyl]-[6-(4-cyclopropylimidazol-1-yl)-2-azaspiro[3.3]heptan-2-yl]methanone] was 475 nM. Consider `CC(C)(C)c1nc(C23CC(C(=O)N4CC5(CC(n6cnc(C7CC7)n6)C5)C4)(C2)C3)no1` [Example 163, [3-(5-tert-butyl-1,2,4-oxadiazol-3-yl)-1-bicyclo[1.1.1]pentanyl]-[6-(3-cyclopropyl-1,2,4-triazol-1-yl)-2-azaspiro[3.3]heptan-2-yl]methanone], for which 192 nM corresponded to half-maximal inhibition (IC50).

In turn, `O=C(N1CC(c2cn(C3(C(F)(F)F)CC3)nn2)C1)N1CC2(CC(n3cnc(C4CC4)n3)C2)C1` [Example 164, [6-(3-cyclopropyl-1,2,4-triazol-1-yl)-2-azaspiro[3.3]heptan-2-yl]-[3-[1-[1-(trifluoromethyl)cyclo-propyl]triazol-4-yl]azetidin-1-yl]methanone] yielded an IC50 of 64.6 nM.

In turn, `O=C(N1CC(n2cc(OCC(F)(F)F)cn2)C1)N1CC2(CC(n3cnc(C4CC4)n3)C2)C1` [Example 165, [6-(3-cyclopropyl-1,2,4-triazol-1-yl)-2-azaspiro[3.3]heptan-2-yl]-[3-[4-(2,2,2-trifluoroethoxy)pyrazol-1-yl]azetidin-1-yl]methanone] displayed an IC50 of 102 nM. As for `O=C(N1CC(c2nc(C3(C(F)(F)F)CC3)no2)C1)N1CC2(CC(n3cnc(C4CC4)n3)C2)C1` [Example 166, [6-(3-cyclopropyl-1,2,4-triazol-1-yl)-2-azaspiro[3.3]heptan-2-yl]-[3-[3-[1-(trifluoromethyl)cyclo-propyl]-1,2,4-oxadiazol-5-yl]azetidin-1-yl]methanone], the figure is 97.9 nM.
